Experimental data published in US8129340B2, “Inhibitors of protein phosphatase 1, GADD34 and protein phosphatase 1/GADD34 complex, preparation and uses thereof” (Institut Gustave Roussy, priority 2006, dated 2012).

Columns and labels:
CRT = assay: Inhibitory profile of CRT exposure (pre-incubation with inhibitors, immunocytofluorometry); assay type: cell-based; details: pre-incubation for 1 h
Description: FIG. 3S: Inhibitory profile of CRT exposure. Cells were treated with mitoxantrone or inhibitors of PP1/GADD34, after pre-incubation for 1 h with the indicated inhibitors of protein synthesis (cycloheximide), RNA synthesis (actinomycin D), microtubuli (nocodazol), or the actin cytoskeleton (latrunculin A). Then, CRT expression was determined by immunocytofluorometry. Results are means of triplicates±SD for one representative experiment out of three.

ERp57 = assay: Flow cytometric detection of surface ERp57 on HeLa cells; assay type: cell-based, human; details: 150 nM, 2 h
Description: HeLa cells were treated with or without mitoxantrone (MTX, 1 μM) or tautomycin (Tau, 150 nM, Sigma) for 2 h. Cells were washed twice with PBS and fixed in PFA (4% w/v) for 5 min. HeLa cells were stained with an antibody against Erp57 (pAb from Abcam, ab10827) at 1:200 dilution or isotype control, in staining buffer (PBS, 1% FCS) for 30 min on ice, followed by washing. An anti-rabbit Alexa fluor 488 immunoglobulin conjugate (Molecular Probes-Invitrogen) diluted at 1:500 was added for an additional 30 min on ice before washing and analysed by flow cytometry (FACScan, Becton Dickinson). Propidium Iodide (50 μg/ml, Becton Dickinson) was added to the samples to label and exclude permeabilized (dead) cells. The CellQuest software was used to analyse the mean fluorescence intensity (MFI) and the percentage of ERp57 positive cells.

CT26 tumours [1] = assay: Intratumoural treatment of established CT26 tumours in immunocompetent mice; assay type: in vivo, BALB/c mice (wild type)
CT26 tumour cells = assay: Anti-tumour vaccination: dying treated CT26 cells injected in one flank, later challenge with live tumour cells; assay type: in vivo, BALB/c mice; details: without cell death inducer
CT26 tumours [2] = assay: Intratumoural treatment of established CT26 tumours in immunodeficient mice; assay type: in vivo, athymic nu/nu Balb/c mice; details: single intratumoural injection
cell surface CRT = assay: Fluorescence detection of cell surface CRT on CT26 cells (cytofluorometry); assay type: cell-based, murine; details: agent alone
Description: FIG. 1SA, FIG. 1SB: Kinetics of CRT exposure. CT26 cells were treated with mitoxantrone for the indicated period, followed by immunofluorescence staining with a CRT-specific antibody and cytofluorometric analysis.
FIG. 2E: Correlation between CRT exposure and immunogenicity. The surface exposure of CRT was determined by immunofluorescence cytometry while gating on viable (propidium iodine-negative) cells (inserts) and was correlated with the immunogenicity of cell death (as determined in FIG. 1). CO, control; Tg, thapsigargin; Tu, tunicamycin.
FIG. 5E: Kinetics of CRT exposure determined by FACS analysis after incubation of cells with the indicated agents.
FIG. 5F-FIG. 5G: PP1/GADD34 inhibitors render cell immunogenic via CRT. Tumour cells were first transfected with a control siRNA or a CRT-specific siRNA and then treated in vitro with etoposide, alone or in combination with PP1/GADD34 inhibitors. […] The results represent the % of tumour free mice (comprising a total of 12 to 18 mice per group).
CT26 cells (on a glass slide or in 12-well plates) were first washed with FACS buffer (1×PBS, 5% fetus bovine serum, and 0.1% sodium azide) and then incubated with rabbit anti-mouse CRT antibody (1:100, Stressgen) in FACS buffer at 4° C. for 30 min. Cells reacted with anti-rabbit IgG (H+L) Alexa fluor 488-conjugates (1:500) in FACS buffer at 4° C. for 30 min. After washing three times with FACS buffer, surface CRT was detected by cytofluorometric analysis on a FACS Vantage. In some experiments, cells were fixed with 4% paraformaldehyde, counterstained with Hoechst (2 μM; Sigma), followed by fluorescence microscopic assessment with a Leica IRE2 microscope equipped with a DC300F camera.

Row | SMILES | effect on CRT exposure induced by anthracyclins and PP1/GADD34 inhibitors (CRT) | surface exposure of ERp57, HeLa cells (ERp57) | therapeutic effect combined with a cell death inducer (etoposide or mitomycin C), immunocompetent mice (CT26 tumours [1]; intratumoural injection with etoposide or mitomycin C) | therapeutic effect of single agent on established tumours, immunocompetent mice (CT26 tumours [1]; single intratumoural injection, 14-day-old CT26 tumours) | induction of immunogenic cell death by the inhibitor alone (CT26 tumour cells) | therapeutic effect of single agent on established tumours, nu/nu mice (CT26 tumours [2]) | induction of CRT exposure at the cell surface (cell surface CRT)
1 | C/C1=C/C(=O)O[C@@H]2C[C@@H](CC[C@H](C)/C=C\C=C\CC1)O[C@@](O)([C@@H]1CSC(=O)N1)C2 [latrunculin A] | abolished | – | – | – | – | – | –
2 | CO[C@H]([C@H](O)CC(=O)[C@@H](C)[C@@H](O)CC[C@@H](C)[C@@H]1O[C@]2(CC[C@@H](C)[C@H](CC[C@H](C)C(C)=O)O2)CC[C@@H]1C)[C@H](OC(=O)C[C@@H](O)C1=C(C)C(=O)OC1=O)C(C)C [tautomycin] | – | stimulates the surface exposure or ERp57 | stable disease or complete tumour regression | no major therapeutic effect | not sufficient to induce immunogenic cell death | no major therapeutic effect | efficiently induced
